Test results published in publication PMC9317316, “Synthesis and Evaluation of Some New 4H-Pyran Derivatives as Antioxidant, Antibacterial and Anti-HCT-116 Cells of CRC, with Molecular Docking, Antiproliferative, Apoptotic and ADME Investigations” (Pharmaceuticals, 2022).
pIC50: −log10 of the molar value.

How the values were obtained:
CDK2/CyclinA2 enzyme = target: T1, CDK2/CyclinA2 enzyme (Homo sapiens, UniProt P24941); experiment: In vitro CDK2 inhibitory assay (Kinase-Glo); type: biochemical
T1 construct: purchased BPS Biosciences, San Diego, CA, USA 79599
Protocol: To further substantiate the promising results of the docking analyses of pyrans 4d and 4K in the ATP active site of CDK2, their in vitro potencies to inhibit the enzyme activity were evaluated over a concentration range of 0.01−10 µM.
CDK-2 inhibition activity of the studied compounds 4d and 4k was evaluated using a commercial CDK2 […] (cat. no.: 79599; BPS Biosciences, San Diego, CA, USA) following the manufacturer’s instructions. Briefly, different concentrations of each compound or the positive control BMS-265246 (0.01, 0. 1, 1 or 10 µM) were incubated with 20 µL of diluted CDK2/CyclinA2 enzyme at 30 °C for 45 min. Following the addition of 50 µL Kinase-Glo® Reagent to each well, the plate was incubated at room temperature for 15 min. Then, the luminescence signal was measured using the microplate reader. The CDK2 inhibitory activity was expressed as inhibition percentage, which was determined by comparison with a control experiment for comparative purposes. IC50 values were deduced from the curves. All measurements were performed in triplicate.

[1] = test system: CDK2 protein in HCT-116 cells; experiment: Quantitative determination of CDK2 concentration in HCT-116 cell lysates (Human CDK2 ELISA Kit); type: cell-based; conditions: negative control 7.466 ng/mL
Protocol: First, the commercial Human CDK2 ELISA Kit was used to estimate concentrations of the protein in the lysate of HCT-116 cells treated with 4d and 4k. The results were compared with the positive (cells treated with the reference CDK inhibitor, BMS-265246) and negative control experiments.
The in vitro quantitative measurement of concentration of CDK2 in lysates of HCT-116 cells was carried out using a commercial Human CDK2 ELISA Kit (cat. no.: LS-F22176; LifeSpan Biosciences Inc., Seattle, WA, USA) in the presence or absence of the studied compounds (4d and 4k), following the manufacturer’s instructions. Briefly, standards, blanks or samples were first incubated in the corresponding wells for 90 min at 37 °C. Then, biotinylated detection antibody was added to each well and the plate was incubated for 1 h at 37 °C followed by the addition of an Avidin–Horseradish Peroxidase (HRP) conjugate which binds to the biotin. After incubation of the mixture for 30 min at 37 °C, unbound Avidin–HRP conjugate was washed away and a TMB substrate was then added which reacts with the HRP enzyme, resulting in color development. After that, the reaction was stopped using a sulfuric acid stop solution to terminate the color-development reaction and the optical density of each well was measured using a microplate reader at 450 nm. BMS-265246 was used as the standard drug for inhibition of CDK2. All measurements were performed in triplicate.

[2] = test system: CDK2 gene in HCT-116 cells; experiment: qRT-PCR expression profile of the CDK2 gene in HCT-116 cells; type: cell-based, human; conditions: 24 h, relative to untreated cells (given as decreased x-fold)
Protocol: Second, the expression profiles of the CDK2 gene in HCT-116 cells treated with compounds 4d and 4k were determined. The results were compared with the positive control (cells treated with the well-known cytotoxic drug 5-fluorouracil) and the negative control (untreated cells).
Primers specific for the cyclin-dependent kinase-2 (CDK2) and caspase-3 genes were designed using primer blast (https://www.ncbi.nlm.nih.gov/tools/primer-blast/, accessed on 31 October 2021) or primer3 (https://primer3.ut.ee/, accessed on 31 October 2021) software. The selected genes covered the two main groups of the cyclin-dependent kinase-2 (CDK2) gene and the caspase-3 gene. Primers were used in RT-qPCR analysis to amplify fragments of 100–200 bp in length (Table 7).
Total RNA was extracted from each cell culture flask using the RNeasy extraction kit (RNeasy micro kit, cat. no. 74004). Up to 1 × 10^6 cells, depending on the cell line, were disrupted in buffer RLT and homogenized and disrupted. Ethanol was then added to the lysate, creating conditions that promote the selective binding of RNA to the RNeasy membrane. […] The amount of extracted RNA was quantified by estimating the absorbance at 260 nm. The purity of the RNA was checked by measuring the ratio of the absorbance at 260 and 280 nm, where a ratio ranging from 1.8 to 2.0 was taken to be pure. […]
(§1) Quantitative real-time PCR was carried out with the Thermal Cycler Rotorgene Real-Time System II (Rotorgene, South Korea) with the SYBR kit. […]
The relative expression levels through the average cycle threshold (CT) were successfully detected. Average CT values were calculated from the triplicate experiment conducted for each gene; the CT value was detected by subtracting the average CT value of genes from the CT value of actin and GAPDH genes. The relative expression levels of the target genes were calculated using the ΔΔ Ct method and the reference genes GAPDH for the cancer cell line. Finally, a fold change equation […] was used to estimate relative expression levels, while the standard deviation was calculated from the replicated experimental data.

[3] = test system: caspase-3 gene in HCT-116 cells; experiment: qRT-PCR expression profile of the caspase-3 gene in HCT-116 cells; type: cell-based, human; set-up: dose or concentration left out as unconfirmed; conditions: 24 h, as compared to the negative control
Source text: Normally, apoptosis, or programmed cell death, is considered as a safeguard mechanism for managing stress and maintaining tissue homeostasis. It proceeds through a series of well-ordered biochemical cascades of events, which are regulated by a network of proteins. However, due to genetic and epigenetic mutations, deregulation of these proteins occurs, which results in evasion of apoptosis. This oncogenic transformation is a hallmark of human cancer, and it contributes to other tumorigenic events, including uncontrolled growth, accumulation of further genetic mutations, tumor angiogenesis and metastasis and chemotherapeutic resistance. Therefore, reinitiating selective cancer cell death is a fundamental goal in anticancer drug development. Research in cancer biology has provided fundamental insights into the apoptotic pathways and their deregulation in colon cancer. Moreover, it has identified the molecular targets for reinitiating selective tumor cell death, including antiapoptotic Bcl-2 family proteins, apoptosis inhibitors and activators of the TRAIL death receptor signaling pathway, as well as other apoptotic markers, such as caspases. Among the caspases, which play critical roles in apoptosis, are the initiators, including caspases-8 or 9, and the effectors, including caspase-3 and caspase-7. […] Thus, the real-time quantitative PCR analyses of caspase-3-gene levels following treatment with compounds 4d and 4K at a concentration […] for 24 h, were performed to investigate their potential as proapoptotic agents. […]
Total RNA was extracted from each cell culture flask using the RNeasy extraction kit (RNeasy micro kit, cat. no. 74004). […] The amount of extracted RNA was quantified by estimating the absorbance at 260 nm. The purity of the RNA was checked by measuring the ratio of the absorbance at 260 and 280 nm, where a ratio ranging from 1.8 to 2.0 was taken to be pure. […]
as §1

Row | decrease of CDK2 activity (CDK2/CyclinA2 enzyme; at 10 µM) | pIC50 (CDK2/CyclinA2 enzyme; deduced from curves over 0.01-10 µM, read-out: IC50 against CDK2) | SMILES | concentration of CDK2 in lysate of treated HCT-116 cells [1] | CDK2 transcript level, fold [2] | caspase-3 gene transcription level, fold increase [3]
1 | 92.3% | 7.44 | CCCCOc1c(C(=O)c2c(F)cc(C)cc2F)c[nH]c2nncc1-2 [BMS-265246, reference compound] | 2.229 ng/mL | – | –
2 | – | – | O=c1[nH]cc(F)c(=O)[nH]1 [5-FU, 5-fluorouracil, reference compound] | – | 0.29 fold | 7.31 fold
